# Measurements reported in ChEMBL document CHEMBL1201862, “PubChem BioAssay data set” (2004).
#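 Cultured in 96-well plates, cells were exposed to test compound for 48 hours across five concentrations. At the GI50, growth is halved.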 Activity calls are given as the source filed them. Cut-off read from the data, not from the text of the source: active = GI50 up to about 1.1 µM and inactive = higher.
# What was measured:
# Test in all cases: NCI tumour cell line growth inhibition, 48 h
# [1] = tested on: M14
# [2] = tested on: HCC 2998
# [3] = tested on: SNB-75
# [4] = tested on: A549
# [5] = tested on: EKVX
# [6] = tested on: SNB-78
# [7] = tested on: DMS-114
# [8] = tested on: HCT-116
# [9] = tested on: HL-60
# [10] = tested on: CAKI-1
# [11] = tested on: SNB-19
# [12] = tested on: NCI-H522
# [13] = tested on: NCI-H460
# [14] = tested on: MOLT-4
# [15] = tested on: SK-MEL-5
# [16] = tested on: CCRF-CEM
# [17] = tested on: OVCAR-5
# [18] = tested on: Malme-3M
# [19] = tested on: HCT-15
# [20] = tested on: OVCAR-3
# [21] = tested on: RPMI-8226
# [22] = tested on: KM12
# [23] = tested on: DMS-273
# [24] = tested on: SK-MEL-2
# [25] = tested on: NCI-H23
# [26] = tested on: DLD-1
# [27] = tested on: 786-0
# [28] = tested on: UO-31
# [29] = tested on: HOP-62
# [30] = tested on: OVCAR-4
# [31] = tested on: SK-MEL-28
# [32] = tested on: LOX IMVI
# [33] = tested on: HOP-18
# [34] = tested on: K562
# [35] = tested on: XF498
# [36] = tested on: COLO 205
# [37] = tested on: ACHN
# [38] = tested on: SF-295
# [39] = tested on: TK-10
# [40] = tested on: SW-620
# [41] = tested on: OVCAR-8
# [42] = tested on: M19-MEL
# [43] = tested on: SF-539
# [44] = tested on: SR
# [45] = tested on: U-251
# [46] = tested on: UACC-257
# [47] = tested on: NCI-H226
# [48] = tested on: HT-29
# [49] = tested on: SN12C
# [50] = tested on: SF-268
# [51] = tested on: HOP-92
# [52] = tested on: SK-OV-3
# [53] = tested on: LXFL 529
# [54] = tested on: IGROV-1
# [55] = tested on: UACC-62
# [56] = tested on: KM-20L2
# [57] = tested on: RXF 393
structure (smiles),measurement,setting,value
COc1cccc(/C=C2\C(=O)N(C(=O)Cc3ccccc3)N=C2C)c1,GI50,[1],> 100 µM (inactive)
same,GI50,[2],> 100 µM (inactive)
same,GI50,[3],> 100 µM (inactive)
same,GI50,[4],> 100 µM (inactive)
same,GI50,[5],> 100 µM (inactive)
same,GI50,[6],> 100 µM (inactive)
same,GI50,[7],> 100 µM (inactive)
same,GI50,[8],> 100 µM (inactive)
same,GI50,[9],> 100 µM (inactive)
same,GI50,[10],> 100 µM (inactive)
same,GI50,[11],> 100 µM (inactive)
same,GI50,[12],> 100 µM (inactive)
same,GI50,[13],> 10 µM (inactive)
same,GI50,[14],> 100 µM (inactive)
same,GI50,[15],> 100 µM (inactive)
same,GI50,[16],> 100 µM (inactive)
same,GI50,[17],> 100 µM (inactive)
same,GI50,[18],> 100 µM (inactive)
same,GI50,[19],> 100 µM
same,GI50,[20],> 100 µM (inactive)
same,GI50,[21],> 100 µM (inactive)
same,GI50,[22],> 100 µM (inactive)
same,GI50,[23],> 100 µM (inactive)
same,GI50,[24],> 100 µM (inactive)
same,GI50,[25],> 100 µM (inactive)
same,GI50,[26],> 100 µM (inactive)
same,GI50,[27],> 100 µM (inactive)
same,GI50,[28],> 100 µM (inactive)
same,GI50,[29],> 100 µM (inactive)
same,GI50,[30],> 100 µM (inactive)
same,GI50,[31],> 100 µM (inactive)
same,GI50,[32],> 100 µM (inactive)
same,GI50,[33],12.4 µM (inactive)
same,GI50,[34],> 100 µM (inactive)
same,GI50,[35],> 100 µM (inactive)
same,GI50,[36],> 100 µM (inactive)
same,GI50,[37],> 100 µM (inactive)
same,GI50,[38],> 100 µM (inactive)
same,GI50,[39],> 100 µM (inactive)
same,GI50,[40],> 100 µM (inactive)
same,GI50,[41],> 100 µM (inactive)
same,GI50,[42],> 100 µM (inactive)
same,GI50,[43],> 100 µM (inactive)
same,GI50,[44],> 100 µM (inactive)
same,GI50,[45],> 100 µM (inactive)
same,GI50,[46],> 100 µM (inactive)
same,GI50,[47],> 100 µM (inactive)
same,GI50,[48],> 100 µM (inactive)
same,GI50,[49],> 100 µM (inactive)
same,GI50,[50],> 100 µM (inactive)
Cc1ccc2nc(NC(=O)C(=O)C(C#N)c3ccc(Cl)cc3)sc2c1 (centres undefined),GI50,[51],> 50 µM (inactive)
same,GI50,[1],> 50 µM (inactive)
same,GI50,[2],> 50 µM (inactive)
same,GI50,[3],> 50 µM (inactive)
same,GI50,[52],> 50 µM (inactive)
same,GI50,[4],> 50 µM (inactive)
same,GI50,[5],> 50 µM (inactive)
same,GI50,[6],> 50 µM (inactive)
same,GI50,[53],> 50 µM (inactive)
same,GI50,[7],> 50 µM (inactive)
same,GI50,[54],> 50 µM (inactive)
same,GI50,[8],> 50 µM (inactive)
same,GI50,[55],> 50 µM (inactive)
same,GI50,[10],> 50 µM (inactive)
same,GI50,[11],> 50 µM (inactive)
same,GI50,[56],> 50 µM (inactive)
same,GI50,[13],> 50 µM (inactive)
same,GI50,[57],> 50 µM (inactive)
same,GI50,[17],> 50 µM (inactive)
same,GI50,[18],> 50 µM (inactive)
same,GI50,[19],> 50 µM
same,GI50,[20],> 50 µM (inactive)
same,GI50,[21],> 50 µM (inactive)
same,GI50,[22],> 50 µM (inactive)
same,GI50,[23],> 50 µM (inactive)
same,GI50,[24],> 50 µM (inactive)
same,GI50,[25],> 50 µM (inactive)
same,GI50,[27],> 50 µM (inactive)
same,GI50,[28],> 50 µM (inactive)
same,GI50,[29],> 50 µM (inactive)
same,GI50,[30],> 50 µM (inactive)
same,GI50,[31],> 50 µM (inactive)
same,GI50,[32],> 50 µM (inactive)
same,GI50,[33],0.265 µM (active)
same,GI50,[35],> 50 µM (inactive)
same,GI50,[36],> 50 µM (inactive)
same,GI50,[37],> 50 µM (inactive)
same,GI50,[38],> 50 µM (inactive)
same,GI50,[39],> 50 µM (inactive)
same,GI50,[40],> 50 µM (inactive)
same,GI50,[41],> 50 µM (inactive)
same,GI50,[42],> 50 µM (inactive)
same,GI50,[43],> 50 µM (inactive)
same,GI50,[45],> 50 µM (inactive)
same,GI50,[46],> 50 µM (inactive)
same,GI50,[47],> 50 µM (inactive)
same,GI50,[48],> 50 µM (inactive)
same,GI50,[49],> 50 µM (inactive)
same,GI50,[50],> 50 µM (inactive)
